Results: PMC10052868 (European journal of medicinal chemistry, 2022)
pIC50: −log10 of the molar value.

Experiments:
PfGSK3 = PfGSK3 (Plasmodium falciparum, UniProt O77344); test: KinaseSeeker assay on PfGSK3; format: binding, P. falciparum
[1] = tested on: panel of 468 kinases (403 non-mutant kinases); format: binding, human; details: for number of non-mutant kinases inhibited with ≤1% control: 1 μM, out of 403 non-mutant kinases
PfCDPK5 = PfCDPK5 (Plasmodium falciparum, UniProt A0A5K1K8H0); test: KinaseSeeker assay on PfCDPK5; format: binding, P. falciparum
PfNEK3 = target: T1, PfNEK3 (Plasmodium falciparum, UniProt Q8I629); test: KinaseSeeker assay on PfNEK3; format: binding, P. falciparum
T1 sequence (Q8I629 1-347): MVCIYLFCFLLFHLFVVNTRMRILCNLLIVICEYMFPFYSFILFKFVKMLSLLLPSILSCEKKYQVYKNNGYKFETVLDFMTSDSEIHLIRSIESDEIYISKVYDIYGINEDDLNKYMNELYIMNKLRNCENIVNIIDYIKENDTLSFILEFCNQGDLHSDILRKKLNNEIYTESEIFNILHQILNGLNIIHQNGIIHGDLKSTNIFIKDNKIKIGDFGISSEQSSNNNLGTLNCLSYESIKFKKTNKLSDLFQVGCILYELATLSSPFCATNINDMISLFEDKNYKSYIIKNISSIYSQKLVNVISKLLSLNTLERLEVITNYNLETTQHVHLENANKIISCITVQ

PfPKB = PfPKB (Plasmodium falciparum, UniProt Q8I4W3); test: KinaseSeeker assay on PfPKB; format: binding, P. falciparum
PfPK6 = PfPK6 (Plasmodium falciparum, UniProt Q8IDW1); test: KinaseSeeker split-luciferase assay on PfPK6; format: binding, P. falciparum; details: for remaining activity at 1 µM: read-out: PfPK6 activity remaining at 1 μM (%)
PfNEK1 = test: KinaseSeeker assay on PfNEK1; format: binding, P. falciparum; details: duplicate
P. berghei ANKA = test: P. berghei liver stage parasite load assay in HepG2 cells; format: cell-based; details: for P. berghei liver stage activity in words: inactive = EC50 not reported because <5-fold difference between observed EC50 and HepG2 CellTiter-Fluor cytotoxicity; for fold difference between P. berghei EC50 and CellTiter-Fluor CC50: HepG2 host cells
PfARK3 = test: KinaseSeeker assay on PfARK3; format: binding, P. falciparum; details: duplicate
P. falciparum 3D7 = test: P. falciparum asexual blood stage viability assay; format: cell-based
PfPK9 = test: KinaseSeeker assay on PfPK9; format: binding, P. falciparum; details: duplicate
PfPK5 = PfPK5 (Plasmodium falciparum, UniProt P61075); test: KinaseSeeker assay on PfPK5; format: binding, P. falciparum; details: read-out: PfPK5 % Activity remaining at 1 μM
PfARK1 = test: KinaseSeeker assay on PfARK1; format: binding, P. falciparum; details: duplicate
[2] = GE = −ΔΔG / Δ(no. of heavy atoms), PfPK6 inhibition

Chain of PfPK5 (P61075 whole entry): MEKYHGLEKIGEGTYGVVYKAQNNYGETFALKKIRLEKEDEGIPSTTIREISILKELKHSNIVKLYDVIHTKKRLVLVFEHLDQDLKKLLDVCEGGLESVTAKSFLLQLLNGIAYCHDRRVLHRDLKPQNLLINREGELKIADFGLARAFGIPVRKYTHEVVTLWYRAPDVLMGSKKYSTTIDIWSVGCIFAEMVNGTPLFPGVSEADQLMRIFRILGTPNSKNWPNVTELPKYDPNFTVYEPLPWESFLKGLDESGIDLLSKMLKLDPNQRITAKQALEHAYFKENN
Chain of PfCDPK5 (A0A5K1K8H0 whole entry): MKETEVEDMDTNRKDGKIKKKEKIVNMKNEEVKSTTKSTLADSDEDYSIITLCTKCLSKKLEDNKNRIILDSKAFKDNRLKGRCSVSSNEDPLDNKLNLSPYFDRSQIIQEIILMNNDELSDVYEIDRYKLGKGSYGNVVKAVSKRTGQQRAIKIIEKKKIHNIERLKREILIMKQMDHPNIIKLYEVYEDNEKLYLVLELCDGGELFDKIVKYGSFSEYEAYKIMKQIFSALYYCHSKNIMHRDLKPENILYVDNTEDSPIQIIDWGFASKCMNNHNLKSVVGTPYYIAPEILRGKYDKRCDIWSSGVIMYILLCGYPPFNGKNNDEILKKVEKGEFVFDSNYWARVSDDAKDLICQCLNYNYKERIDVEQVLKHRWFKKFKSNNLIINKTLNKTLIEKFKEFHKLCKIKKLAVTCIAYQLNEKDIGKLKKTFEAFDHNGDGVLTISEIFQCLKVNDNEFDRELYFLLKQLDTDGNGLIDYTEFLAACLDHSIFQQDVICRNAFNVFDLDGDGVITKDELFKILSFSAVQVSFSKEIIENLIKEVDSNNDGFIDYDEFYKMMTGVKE

In the case of COc1cc2nccc(Oc3ccc(NC(=O)Nc4ccc(CN5CCN(C)CC5)c(C(F)(F)F)c4)c(F)c3)c2cc1OC [Compound 45, 1-(4-((6,7-dimethoxyquinolin-4-yl)oxy)-2-fluorophenyl)-3-(4-((4-methylpiperazin-1-yl)methyl)-3-(trifluoromethyl)phenyl)urea diformate], the pIC50 (PfGSK3) was 6.84 to 7.40, the “number of non-mutant kinases inhibited with ≤1% control” value [1] was 134 and the pIC50 (PfCDPK5) was 6.84 to 7.40. It also gave a pIC50 (PfNEK3) of 6.84 to 7.40 and a pIC50 (PfPKB) of 6.84 to 7.40.
In the case of COc1cc2nccc(Oc3ccc(NC(=O)Nc4ccc(CC5CCNCC5)cc4)c(F)c3)c2cc1OC [Compound 67, 1-(4-((6,7-dimethoxyquinolin-4-yl)oxy)-2-fluorophenyl)-3-(4-(piperidin-4-ylmethyl)phenyl)urea], the remaining activity at 1 µM (PfPK6) was 2%, the “number of non-mutant kinases inhibited with ≤1% control” value [1] was 22 and the “PfNEK1 % Activity remaining at 1 μM” value (PfNEK1) was 100%. For the same molecule, the “P. berghei liver stage activity in words” value (P. berghei ANKA) was “inactive^g” and the “PfARK3 % Activity remaining at 1 μM” value (PfARK3) was 100%.
COc1cc2nccc(Oc3ccc(NC(=O)Nc4ccc(C=C5CCNCC5)cc4)c(F)c3)c2cc1OC [Compound 68, 1-(4-((6,7-dimethoxyquinolin-4-yl)oxy)-2-fluorophenyl)-3-(4-(piperidin-4-ylidenemethyl)phenyl)urea] was tested, and the “fold improvement in P. falciparum blood stage inhibitory activity over 41” value (P. falciparum 3D7; compared to 41) was “approximately 4 fold”, the “PfPK9 % Activity remaining at 1 μM” value (PfPK9) was 100% and the remaining activity at 1 µM (PfPK6) was 1%. For the same molecule, the remaining activity at 1 µM (PfPK5) was 100%, the “PfNEK1 % Activity remaining at 1 μM” value (PfNEK1) was 100% and the “fold difference between P. berghei EC50 and CellTiter-Fluor CC50” value (P. berghei ANKA) was 1.9 fold. The “P. berghei liver stage activity in words” value (P. berghei ANKA) was “inactive^g” and the “PfARK3 % Activity remaining at 1 μM” value (PfARK3) was 100%.
In the case of COc1cc2nccc(Oc3ccc(NC(=O)Nc4ccc(OC5CCN(C)CC5)c(C(F)(F)F)c4)c(F)c3)c2cc1OC [Compound 75, 1-(4-((6,7-dimethoxyquinolin-4-yl)oxy)-2-fluorophenyl)-3-(4-((1-methylpiperidin-4-yl)oxy)-3-(trifluoromethyl)phenyl)urea], the “fold improvement in P. falciparum blood stage potency on adding CF3 or OCF3” value (P. falciparum 3D7; compared to parent compound without meta group (64, 66, 67 or 68)) was 8 fold, the remaining activity at 1 µM (PfPK6) was 0% and the “PfNEK1 % Activity remaining at 1 μM” value (PfNEK1) was 100%. For the same molecule, the “fold difference between P. berghei EC50 and CellTiter-Fluor CC50” value (P. berghei ANKA) was 1.9 fold and the “P. berghei liver stage activity in words” value (P. berghei ANKA) was “inactive^g”.
With COc1cc2nccc(Oc3ccc(NC(=O)Nc4ccc(CC5CCNCC5)c(C(F)(F)F)c4)c(F)c3)c2cc1OC [Compound 79, 1-(4-((6,7-dimethoxyquinolin-4-yl)oxy)-2-fluorophenyl)-3-(4-(piperidin-4-ylmethyl)-3-(trifluoromethyl)phenyl)urea] the pIC50 (PfPK6) was over 8.30, the remaining activity at 1 µM (PfPK6) was 1% and the “PfARK1 % Activity remaining at 1 μM” value (PfARK1) was 100%. The “PfNEK1 % Activity remaining at 1 μM” value (PfNEK1) was 100%.
In the case of COc1cc2nccc(Oc3ccc(NC(=O)Nc4ccc(F)cc4F)c(F)c3)c2cc1OC [Ki8751, reference compound], the “group efficiency (GE) of the 7-methoxy group” value (PfPK6; [2]) was 0.81 ± 0.04, the “group efficiency (GE) of the entire urea group” value (PfPK6; [2]) was 0.39 ± 0.02 and the “group efficiency (GE) of the tail phenyl ring” value (PfPK6; [2]) was over 0.41 ± 0.005. The “number of non-mutant kinases inhibited with ≤1% control” value [1] was 16 and the “selectivity score S1 (1 μM)” value ([1]; KINOMEscan, 403 non-mutant kinases) was 0.040.
